According to PubChem BioAssay AID330 (DTP/NCI, 2004):
Values joined by “and” are separate entries in the source; they are usually repeats but may differ in a detail not shown here. Equal values may be shown once. Inconclusive results and toxic doses are left out.

Tested on: P388 leukemia ip, CD2F1 mice, survival T/C
Assay: NCI In Vivo Anticancer Drug Screen. Data for tumor model P388 Leukemia (intraperitoneal) in CD2F1 (CDF1) mice
Conditions: endpoint: median survival time, higher = longer survival
Procedure, shortened: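 Mice carrying the transplanted tumor received test compound or vehicle. Survival was recorded in each group, and the value is the treated-group measurement divided by that of the vehicle-treated control group.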

[1] = dose: 50.0 mg/kg/injection, schedule: Q01DX009 (ip), vehicle: saline with Tween-80
[2] = dose: 100.0 mg/kg/injection, schedule: Q01DX009 (ip), vehicle: saline with Tween-80
[3] = dose: 200.0 mg/kg/injection, schedule: Q01DX009 (ip), vehicle: saline with Tween-80
[4] = dose: 60.0 mg/kg/injection, schedule: Q01DX005 (ip), vehicle: saline with Tween-80
[5] = dose: 120.0 mg/kg/injection, schedule: Q01DX005 (ip), vehicle: saline with Tween-80
[6] = dose: 240.0 mg/kg/injection, schedule: Q01DX005 (ip), vehicle: saline with Tween-80
[7] = dose: 6.25 mg/kg/injection, schedule: Q01DX005 (ip), vehicle: saline
[8] = dose: 12.5 mg/kg/injection, schedule: Q01DX005 (ip), vehicle: saline
[9] = dose: 50.0 mg/kg/injection, schedule: Q01DX005 (ip), vehicle: Klucel (hydroxypropylcellulose) (HPC)
[10] = dose: 100.0 mg/kg/injection, schedule: Q01DX005 (ip), vehicle: Klucel (hydroxypropylcellulose) (HPC)
[11] = dose: 200.0 mg/kg/injection, schedule: Q01DX005 (ip), vehicle: Klucel (hydroxypropylcellulose) (HPC)
[12] = dose: 100.0 mg/kg/injection, schedule: Q01DX009 (ip), vehicle: Klucel (hydroxypropylcellulose) (HPC)
[13] = dose: 200.0 mg/kg/injection, schedule: Q01DX009 (ip), vehicle: Klucel (hydroxypropylcellulose) (HPC)
[14] = dose: 100.0 mg/kg/injection, schedule: Q04DX003 (ip), vehicle: saline with Tween-80
[15] = dose: 200.0 mg/kg/injection, schedule: Q04DX003 (ip), vehicle: saline with Tween-80
[16] = dose: 50.0 mg/kg/injection, schedule: Q01DX009 (ip), vehicle: saline
[17] = dose: 100.0 mg/kg/injection, schedule: Q01DX009 (ip), vehicle: saline
[18] = dose: 200.0 mg/kg/injection, schedule: Q01DX009 (ip), vehicle: saline
[19] = dose: 50.0 mg/kg/injection, schedule: Q01DX005 (ip), vehicle: saline
[20] = dose: 100.0 mg/kg/injection, schedule: Q01DX005 (ip), vehicle: saline

## CC(C)=O
dose: 2.0 % in 0.5 ml injection vol, schedule: Q01DX009 (ip), vehicle: water
  T/C: 97 % of control
dose: 4.0 % in 0.5 ml injection vol, schedule: Q01DX009 (ip), vehicle: water
  T/C: 100 % of control and 101 % of control
dose: 8.0 % in 0.5 ml injection vol, schedule: Q01DX009 (ip), vehicle: water
  T/C: 102 % of control and 106 % of control
dose: 16.0 % in 0.5 ml injection vol, schedule: Q01DX009 (ip), vehicle: water
  T/C: 105 % of control

## N/C(=C\S(=O)(=O)c1ccccc1)C12CC3CC(CC(C3)C1)C2
[1]
  T/C: 94 % of control
[2]
  T/C: 94 % of control
[3]
  T/C: 87 % of control

## SC1CCCN(Cc2ccccc2)C1 (stereo not given)
dose: 50.0 mg/kg/injection, schedule: Q01DX005 (ip), vehicle: saline with Tween-80
  T/C: 117 % of control
dose: 100.0 mg/kg/injection, schedule: Q01DX005 (ip), vehicle: saline with Tween-80
  T/C: 108 % of control
dose: 200.0 mg/kg/injection, schedule: Q01DX005 (ip), vehicle: saline with Tween-80
  T/C: 110 % of control

## C#CCNC1=C(C)C(=O)C2=C(C1=O)[C@H](COC(N)=O)[C@]1(OC)[C@@H]3N[C@@H]3CN21
dose: 12.0 mg/kg/injection, schedule: Q01DX001 (ip), vehicle: distilled water + Tween-80
  T/C: 163 % of control
dose: 24.0 mg/kg/injection, schedule: Q01DX001 (ip), vehicle: distilled water + Tween-80
  T/C: 173 % of control
dose: 48.0 mg/kg/injection, schedule: Q01DX001 (ip), vehicle: distilled water + Tween-80
  T/C: 165 % of control and 265 % of control
dose: 96.0 mg/kg/injection, schedule: Q01DX001 (ip), vehicle: distilled water + Tween-80
  T/C: 203 % of control

## CCOC(=O)C1Cc2c(OC)cc(OC)cc2OC1=O (stereo not given)
[4]
  T/C: 97 % of control
[5]
  T/C: 94 % of control
[6]
  T/C: 92 % of control

## O=C1CSC(c2cccc(Cl)c2)N1c1nncs1 (stereo not given)
[4]
  T/C: 109 % of control
[5]
  T/C: 97 % of control
[6]
  T/C: 98 % of control

## COc1cc(NCCC2CCCCN2)c2ncccc2c1 (stereo not given)
[7]
  T/C: 100 % of control
[8]
  T/C: 100 % of control

## CC(C)(C)OC(=O)NC(Cc1c[nH]c2ccccc12)C(=O)O (stereo not given)
[9]
  T/C: 102 % of control
[10]
  T/C: 101 % of control
[11]
  T/C: 101 % of control

## COc1ccc(NC(=O)Nc2nc3c(C)cccc3s2)cc1
[9]
  T/C: 101 % of control
[10]
  T/C: 98 % of control
[11]
  T/C: 93 % of control

## CCC(Nc1nncs1)Nc1nncs1
[9]
  T/C: 100 % of control
[10]
  T/C: 99 % of control
[11]
  T/C: 98 % of control

## C/C=C/c1cc(OC)c2c(c1)[C@H](C)C(c1ccc3c(c1)OCO3)O2 (stereo not given in full)
dose: 37.5 mg/kg/injection, schedule: Q01DX005 (ip), vehicle: Klucel (hydroxypropylcellulose) (HPC)
  T/C: 97 % of control
dose: 75.0 mg/kg/injection, schedule: Q01DX005 (ip), vehicle: Klucel (hydroxypropylcellulose) (HPC)
  T/C: 86 % of control
dose: 150.0 mg/kg/injection, schedule: Q01DX005 (ip), vehicle: Klucel (hydroxypropylcellulose) (HPC)
  T/C: 88 % of control
dose: 300.0 mg/kg/injection, schedule: Q01DX005 (ip), vehicle: Klucel (hydroxypropylcellulose) (HPC)
  T/C: 91 % of control

## CN(C)c1nc(OC2C(C(O)CO)OC3OC(C)(C)OC32)nc(N(C)C)n1 (stereo not given)
[14]
  T/C: 105 % of control
[15]
  T/C: 95 % of control
dose: 400.0 mg/kg/injection, schedule: Q04DX003 (ip), vehicle: saline with Tween-80
  T/C: 92 % of control

## O=C(OC1C2CCC2C2CC21)c1ccc([N+](=O)[O-])cc1[N+](=O)[O-] (stereo not given)
[16]
  T/C: 105 % of control
[17]
  T/C: 99 % of control and 92 % of control
[18]
  T/C: 92 % of control and 93 % of control

## C1CCC2CC3CCCCN3COC2CC1 (stereo not given)
[19]
  T/C: 116 % of control
[20]
  T/C: 118 % of control

## O=C(O)/C=C/c1c[nH]c(=O)[nH]c1=O
[4]
  T/C: 107 % of control
[5]
  T/C: 100 % of control
[6]
  T/C: 89 % of control

## CCOC(=O)CCOCOCCC(=O)OCC
[17]
  T/C: 100 % of control
[18]
  T/C: 115 % of control
dose: 400.0 mg/kg/injection, schedule: Q01DX009 (ip), vehicle: saline
  T/C: 110 % of control

## c1ccc2c(NCCCCCCCCCCCCNc3c4ccccc4nc4ccccc34)c3ccccc3nc2c1
dose: 1.25 mg/kg/injection, schedule: Q## X009 (ip), vehicle: lactic acid
  T/C: 100 % of control and 96 % of control
dose: 2.5 mg/kg/injection, schedule: Q## X009 (ip), vehicle: lactic acid
  T/C: 99 % of control and 92 % of control
dose: 5.0 mg/kg/injection, schedule: Q## X009 (ip), vehicle: lactic acid
  T/C: 107 % of control and 110 % of control

## Cn1c(O)c(N=O)c(=O)n(C)c1=O
dose: 25.0 mg/kg/injection, schedule: Q01DX009 (ip), vehicle: saline with Tween-80
  T/C: 105 % of control
[1]
  T/C: 100 % of control
[2]
  T/C: 111 % of control

## CC(C)(C)C(=N)N
dose: 12.5 mg/kg/injection, schedule: Q01DX009 (ip), vehicle: saline
  T/C: 100 % of control
dose: 25.0 mg/kg/injection, schedule: Q01DX009 (ip), vehicle: saline
  T/C: 108 % of control
[16]
  T/C: 102 % of control

## CSC(=S)N=Nc1c(O)[nH]c2ccccc12
[16]
  T/C: 93 % of control
[17]
  T/C: 96 % of control
[18]
  T/C: 99 % of control

## Cc1cc2c(cc1C)NC(C)CC(=O)N2 (stereo not given)
[14]
  T/C: 109 % of control
[15]
  T/C: 95 % of control

## CCCCCCCCCCCCOCCCOP(=O)([O-])OCC[N+](C)(C)C
[7]
  T/C: 105 % of control
[8]
  T/C: 100 % of control
dose: 25.0 mg/kg/injection, schedule: Q01DX005 (ip), vehicle: saline
  T/C: 91 % of control
[19]
  T/C: 91 % of control
[20]
  T/C: 107 % of control

## CCc1c2c(cc3c1[nH]c1ccccc13)C(=O)OC2=O
[9]
  T/C: 95 % of control
[10]
  T/C: 86 % of control
[11]
  T/C: 98 % of control

## O=[N+]([O-])c1ccc(NCc2ccccc2)nc1
[1]
  T/C: 107 % of control
[2]
  T/C: 117 % of control
[3]
  T/C: 112 % of control

## O=C1C2CC(CN3CCCCC23)C2CCCCN12 (stereo not given)
dose: 6.2 mg/kg/injection, schedule: Q01DX007 (ip), vehicle: carboxymethylcellulose (CMC)
  T/C: 100 % of control
dose: 12.5 mg/kg/injection, schedule: Q01DX007 (ip), vehicle: carboxymethylcellulose (CMC)
  T/C: 91 % of control
dose: 25.0 mg/kg/injection, schedule: Q01DX007 (ip), vehicle: carboxymethylcellulose (CMC)
  T/C: 91 % of control
dose: 37.5 mg/kg/injection, schedule: Q01DX009 (ip), vehicle: saline
  T/C: 95 % of control
dose: 75.0 mg/kg/injection, schedule: Q01DX009 (ip), vehicle: saline
  T/C: 102 % of control
dose: 150.0 mg/kg/injection, schedule: Q01DX009 (ip), vehicle: saline
  T/C: 101 % of control

## N#CNC(=S)SCC(N)=O
[9]
  T/C: 100 % of control
[10]
  T/C: 100 % of control
[11]
  T/C: 102 % of control

## CC1(C)C(=O)C2(CCCCC2)C1N1CCCCC1 (stereo not given)
dose: 50.0 mg/kg/injection, schedule: Q01DX009 (ip), vehicle: Klucel (hydroxypropylcellulose) (HPC)
  T/C: 96 % of control
[12]
  T/C: 98 % of control
[13]
  T/C: 107 % of control

## O=C1CCCC2=C1C(c1ccccc1)C1=C(CCCC1=O)O2
[4]
  T/C: 100 % of control
[5]
  T/C: 94 % of control
[6]
  T/C: 92 % of control

## CNC1CCc2cc(OC)ccc21 (stereo not given)
dose: 50.0 mg/kg/injection, schedule: Q01DX001 (ip), vehicle: Klucel (hydroxypropylcellulose) (HPC)
  T/C: 107 % of control
dose: 100.0 mg/kg/injection, schedule: Q01DX001 (ip), vehicle: Klucel (hydroxypropylcellulose) (HPC)
  T/C: 102 % of control

## CN1CCC(OC(=O)c2ccco2)CC1
dose: 50.0 mg/kg/injection, schedule: Q04DX003 (ip), vehicle: saline
  T/C: 101 % of control
dose: 100.0 mg/kg/injection, schedule: Q04DX003 (ip), vehicle: saline
  T/C: 100 % of control
dose: 200.0 mg/kg/injection, schedule: Q04DX003 (ip), vehicle: saline
  T/C: 99 % of control

## O=C(C(O)C(O)C(O)CO)n1cnc2c1ncn1c(=O)cc(CI)nc21 (stereo not given)
dose: 100.0 mg/kg/injection, schedule: Q01DX001 (ip), vehicle: saline with Tween-80
  T/C: 105 % of control
dose: 200.0 mg/kg/injection, schedule: Q01DX001 (ip), vehicle: saline with Tween-80
  T/C: 97 % of control
dose: 400.0 mg/kg/injection, schedule: Q01DX001 (ip), vehicle: saline with Tween-80
  T/C: 111 % of control
